Structures are written as SMILES. “And” between values parts separate entries of the source, which are not always exact repeats. Equal values may be shown once. Read-outs that look alike come from different tables or passages of the source. Marks after values point to notes of the source that are not given here.

The test system of one series is Ishikawa cell line. The conditions noted are these: read-out: EC50, estrogenicity; Ishikawa cells; cited from earlier work.
For series [1] the following is noted: cited from earlier work.
For series [2] the following is noted: for unconjugated form in serum: before enzymatic deconjugation, early time points of medium and high dose subjects; for Cmax / half-life / Tmax / Vd/F: female, human, serum, po; for CL/F: oral.
For series [3] the following is noted: mean ± S.D., N = 5; for Urinary excretion (total) during the first 24 h: after enzymatic deconjugation.
For series [4] the following is noted: rats, cited from earlier work.
The conditions of series [5]: rats, 100 mg/kg XN daily by oral gavage for 5 days; cited from earlier work.
For series [6] the following is noted: in the stomach; cited from earlier work.
For series [7] the following is noted: cited from earlier work. The source holds these as a separate data set.
For series [8] the following is noted: female, human, in vivo.
The nature of another series: clinical. The conditions noted are these: female, human, in vivo.
Setting [9] is: 2 capsules/day, medium dose (2 capsules), mean ± S.D., N = 5.
Where [10] appears, read: 2 capsules/day, T1/2, medium dose (2 capsules), mean ± S.D., N = 5.
Where [11] appears, read: 4 capsules/day, high dose (4 capsules), mean ± S.D., N = 5.
Where [12] appears, read: 4 capsules/day, T1/2, high dose (4 capsules), mean ± S.D., N = 5.
[13] abbreviates: half-life, across all dosages of the hop extract.
The mark [14] stands for this setting: high dose (4 capsules), mean ± S.D., N = 5.
Where [15] appears, read: low dose (1 capsule), mean ± S.D., N = 5.
[16] abbreviates: medium dose (2 capsules), mean ± S.D., N = 5.

Consider `CC(C)=CCc1c(O)cc(O)c2c1O[C@H](c1ccc(O)cc1)CC2=O` [8-PN, 8-prenylnaringenin], for which the concentration for a half-maximal effect (EC50) (as a rule, the concentration that produces a half-maximal response) in the series on Ishikawa cell line was 0.013 µM. Besides, the “time of secondary peak due to enterohepatic recirculation” value in series [1] (post dose, women) is 5 to 8 h. The AUC0-24 in series [1] (single oral dose of 50 mg 8-PN, women) is given as 453 h^.ng/mL. Further, the “share of dose recovered in feces within 48 h” value in series [1] (single oral doses to women) was 21-24%. Also, in series [2], the “unconjugated form in serum” value is “no free 8-PN was detected”. Further, the “AUC0-24 of a theoretical dose of 50 mg 8-PN in the hop extract” value in [2] (extrapolated assuming AUC linear with dose) was 2520 h^.ng/mL. Further, the Cmax (as a rule, the peak of the concentration-time curve) worked out at 0.0039 ± 0.0026 µg/mL in series [2] (setting [9]) and 0.0067 ± 0.0038 µg/mL in series [2] (setting [11]). In addition, the half-life in [2] (setting [10]), in series [2] (setting [12]) and in series [2] (setting [13]) was above 24 h in each case. In addition, the figures for the Tmax in series [2] (setting [9]) and in series [2] (setting [11]) were 7 ± 9.7 h and 2.8 ± 4 h, respectively. Further, the Vd/F (in general, the volume of distribution divided by bioavailability) in series [2] (setting [9]) stood at 186 ± 186 L; in series [2] (setting [11]), 271 ± 216 L. Besides, the CL/F (usually the apparent clearance, not corrected for the fraction that reaches the circulation) in [2] (setting [14]) is reported as 13.7 ± 5.5 L/h; in series [2] (setting [15]) it was 11.1 ± 3.4 L/h; in series [2] (setting [16]) it was 10.4 ± 8.1 L/h. Further, the “ratio of total serum concentrations 8-PN/IX” value in series [2] (mean of the other 4 subjects, high dose) was found to be 0.14; in series [2] (mean value, medium dose), 0.17; in series [2] (one subject with higher exposure, high dose, after enzymatic deconjugation), 0.35; in series [2] (one subject with higher exposure, medium dose), 0.65. Further, the “Urinary excretion (total) during the first 24 h” value in [3] (high dose) was 29.4 ± 22.9 nmol; in series [3] (low dose), 5.1 ± 4.4 nmol; in series [3] (medium dose), 21.3 ± 21.6 nmol. Further, the entries for the “Urinary excretion (% of dose) during the first 24 h” value in series [3] (high dose), in [3] (low dose) and in series [3] (medium dose) were 1.001±0.781%, 0.693±0.597% and 1.449±1.467%, respectively.

`COc1cc(O)c(CC=C(C)C)c(O)c1C(=O)/C=C/c1ccc(O)cc1` [XN, xanthohumol]: the “share recovered in the feces in the first 48 h” value in [4] (oral administration) was 89%. Besides, the elimination half-life in [4] (oral pure XN) was 32 h; in series [7] (humans, oral pure XN), 18 to 20 h. In addition, the tissue distribution entry in series [5] is “highest concentrations in the small intestine, colon and the liver”. In series [6], the “half-life of conversion to IX by acid-catalyzed cyclization” value is 0.617 h. Further, the “time of secondary peak due to enterohepatic recirculation” value in series [7] (men and women) is on record as 4 h. Further, in series [2], the “unconjugated form in serum” value is listed as “detected”. Further, the figures for the Cmax in [2] (setting [9]) and in series [2] (setting [11]) were 0.0222 ± 0.0121 µg/mL and 0.0276 ± 0.0089 µg/mL, respectively. The half-life (commonly the time needed for the level to fall by half in the phase considered) was 9.5 ± 2.2 h in [2] (setting [10]), 20.7 ± 12.7 h in series [2] (setting [12]) and around 19 h in [2] (setting [13]). Further, the figures for the Tmax in series [2] (setting [9]) and in series [2] (setting [11]) were 3.6 ± 2.6 h and 1.8 ± 1.8 h, respectively. Moreover, the values for the Vd/F in series [2] (setting [9]) and in series [2] (setting [11]) were 3770 ± 1390 L and 7880 ± 1810 L, respectively. In addition, the CL/F is 329 L/h and 329 ± 163 L/h in [2] (setting [14]); 657 L/h and 657 ± 670 L/h in series [2] (setting [15]); 278 L/h and 278 ± 87 L/h in series [2] (setting [16]). The figures for the “Urinary excretion (total) during the first 24 h” value in series [3] (high dose), in [3] (low dose) and in [3] (medium dose) were 138 ± 113 nmol, 23.9 ± 17.9^a nmol and 37.0 ± 26.3 nmol, respectively. Further, the “Urinary excretion (% of dose) during the first 24 h” value in series [3] (high dose) stood at 0.058±0.047%; in series [3] (low dose), 0.040±0.030%; in series [3] (medium dose), 0.031±0.022%.

On to `COc1cc(O)c(CC=C(C)C)c2c1C(=O)CC(c1ccc(O)cc1)O2` (centres unmarked) [IX, isoxanthohumol], for which the “unconjugated form in serum” value in [2] was “detected”. The Cmax in [2] (setting [9]) worked out at 0.0191 ± 0.0155 µg/mL; in [2] (setting [11]), 0.0376 ± 0.0176 µg/mL. The values for the half-life in series [2] (setting [10]) and in series [2] (setting [12]) were 24.8 ± 24.3 h and 19.9 ± 8.7 h, respectively. Moreover, the Tmax (as a rule, the time from dosing to the highest level) in [2] (setting [9]) was determined as 3.2 ± 3.2 h; in series [2] (setting [11]), 4 ± 4.8 h. Moreover, the Vd/F in series [2] (setting [9]) turned out to be 99 ± 56 L; in series [2] (setting [11]), 182 ± 53 L. Further, the CL/F in series [2] (setting [14]) came to 7.3 ± 3.5 L/h; in [2] (setting [15]), 7.1 ± 4.2 L/h; in series [2] (setting [16]), 5.7 ± 4.9 L/h. Besides, the “Urinary excretion (total) during the first 24 h” value in series [3] (high dose) came to 172 ± 67.4 nmol; in series [3] (low dose), 29.8 ± 32.3 nmol; in [3] (medium dose) it was 89.5 ± 54.5 nmol. Also, the “Urinary excretion (% of dose) during the first 24 h” value in series [3] (high dose) stood at 1.902±0.746%; in [3] (low dose), 1.318±1.428%; in series [3] (medium dose) it was 1.98±1.205%.

`CC(C)=CCc1c(O)cc2c(c1O)C(=O)C[C@@H](c1ccc(O)cc1)O2` [6-PN, 6-prenylnaringenin]: the “AUC0-24 ratios after normalization by dose” value in series [8] is reported as 1: 1.2: 0.5. Moreover, the Vd/F in “clinical” (apparent volume of distribution) was 887 to 1770 L; in “clinical” (po), 887 ± 581 L. The AUC(0-inf) (in general, the area under the concentration-time curve extrapolated to infinity) in “clinical” (po, AUC0-inf) came out at 0.0692 ± 0.06 µg·h/mL. Also, the half-life in “clinical” (po, T1/2) was 23.5 ± 6.9 h; in “clinical” (po, half-life) it was 21 to 24 h.

The values are drawn from paper PMC4265473 (Molecular nutrition & food research, 2014).
